Tests used:
Format in all cases: in vivo
Pythium aphanidermatum = test: Test M: bluegrass pythium blight, preventive spray on bluegrass seedlings; settings: 200 ppm; 100 = 100% disease control, 0 = no control relative to controls
Source text: (§1) General protocol for preparing test suspensions for Tests A-R: The test compounds were first dissolved in acetone in an amount equal to 3% of the final volume and then suspended at the desired concentration (in ppm) in acetone and purified water (50/50 mix) containing 250 ppm of the surfactant Trem® 014 (polyhydric alcohol esters). The resulting test suspensions were then used in tests A-R. In Tests A-M, compounds were sprayed as a 200 ppm test suspension (equivalent to a rate of 500 g/ha) or as a 40 ppm test suspension to the point of runoff on the test plants. In Tests N-R, compounds were sprayed as a 100 g/ha test suspension (equivalent to a rate of 100 ppm) on the test plants at an application volume of 1000 L/ha. The test suspension was sprayed to the point of run-off on bluegrass seedlings.

[1] = test system: Puccinia recondita f. sp. tritici; test: Test B: wheat leaf rust, preventive spray on wheat seedlings; settings: 200 ppm, 100 = 100% disease control, 0 = no control relative to controls; for pest or weed control at 200 ppm: Puccinia recondita, 192 h, read-out: Test B disease control rating
In short: (§2)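 Two spray concentrations are used, 40 ppm and 200 ppm, the latter matching a rate of 500 g/ha, applied until run-off. The carrier is half acetone, half purified water with 250 ppm surfactant, and acetone for initial dissolution makes up 3% of the volume.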

[2] = test system: Colletotrichum orbiculare; test: Test I: cucumber Colletotrichum anthracnose, preventive spray on cucumber seedlings; settings: 100 = 100% disease control, 0 = no control relative to controls; for Test I disease control rating: 200 ppm; for pest or weed control at 200 ppm: Colletotrichum orbiculare, 144 h, read-out: Test I disease control rating
In short: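 Preventive foliar spray to run-off on cucumber seedlings, at 200 ppm (stated as equal to 500 g/ha) or 40 ppm. Test suspensions were made in acetone/water 50/50 containing 250 ppm Trem 014, after first dissolving compound in acetone at 3% of final volume.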

Rhizoctonia oryzae = test: Test J: turf brown patch, preventive spray on creeping bent grass seedlings; settings: 200 ppm; 100 = 100% disease control, 0 = no control relative to controls
Source text: as §1, with “creeping bent grass” for “bluegrass”

Fusarium graminearum = test: whole plant or invertebrate; settings: for Test E disease control rating: 200 ppm, 100 = 100% disease control, 0 = no control relative to controls; for pest or weed control at 200 ppm: Fusarium graminearum, in Triticum aestivum, 192 h, read-out: Test E disease control rating
Plasmopara viticola [3] = test: Test L: grape downy mildew, spray after inoculation of grape seedlings; settings: 200 ppm; 100 = 100% disease control, 0 = no control relative to controls
Source text: as §1, with “L/ha. Grape seedlings were inoculated with a spore suspension of Plasmopara viticola (the causal agent of grape downy mildew) and incubated in a saturated atmosphere at 20° C. for 24 h. After a short drying period, the” for “L/ha. The”, “on the grape seedlings and then moved to a growth chamber at 20° C. for 6 days, after which time the test units were placed back into a saturated atmosphere at 20° C. for 24 h. Upon removal, disease ratings were made.” for “on bluegrass seedlings.”

[4] = test system: Erysiphe graminis f. sp. tritici; test: Test A: wheat powdery mildew, preventive spray on wheat seedlings; settings: 200 ppm, 100 = 100% disease control, 0 = no control relative to controls; for pest or weed control at 200 ppm: Blumeria graminis, 192 h, read-out: Test A disease control rating
In short: as §2

Septoria tritici = test: Test D: wheat leaf blotch, preventive spray on wheat seedlings; settings: 200 ppm, 100 = 100% disease control, 0 = no control relative to controls; for pest or weed control at 200 ppm: Zymoseptoria tritici, 504 h, read-out: Test D disease control rating
In short: as §2

Botrytis cinerea = test: Test F: tomato Botrytis, preventive spray on tomato seedlings; settings: 200 ppm, 100 = 100% disease control, 0 = no control relative to controls; for pest or weed control at 200 ppm: Botrytis cinerea, 120 h, read-out: Test F disease control rating
In short: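 Preventive run-off spray onto tomato seedlings at 200 ppm (equivalent to 500 g/ha) or 40 ppm. Suspensions: compound predissolved in acetone at 3% of final volume, then taken up in acetone/purified water 50/50 containing 250 ppm Trem® 014 surfactant.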

Septoria nodorum = test: Test C: wheat glume blotch, preventive spray on wheat seedlings; settings: 200 ppm, 100 = 100% disease control, 0 = no control relative to controls; for pest or weed control at 200 ppm: Parastagonospora nodorum, 216 h, read-out: Test C disease control rating
In short: as §2

Phytophthora infestans = settings: 200 ppm; 100 = 100% disease control, 0 = no control relative to controls
Uncinula necator = test: Test N: grape powdery mildew, preventive spray on grape seedlings; settings: 100 ppm (100 g/ha, 1000 L/ha), inoculated the following day, 100 = 100% disease control, 0 = no control relative to controls
Source text: as §1, with “sprayed” for “sprayed to the point of run-off”, “grape” for “bluegrass”

Plasmopara viticola [5] = test: Test R: grape downy mildew, preventive spray on grape seedlings; settings: 100 ppm (100 g/ha, 1000 L/ha), inoculated the following day, 100 = 100% disease control, 0 = no control relative to controls
Source text: General protocol for preparing test suspensions for Tests A-R: The test compounds were first dissolved in acetone in an amount equal to 3% of the final volume and then suspended at the desired concentration (in ppm) in acetone and purified water (50/50 mix) containing 250 ppm of the surfactant Trem® 014 (polyhydric alcohol esters). The resulting test suspensions were then used in tests A-R. In Tests A-M, compounds were sprayed as a 200 ppm test suspension (equivalent to a rate of 500 g/ha) or as a 40 ppm test suspension to the point of runoff on the test plants. In Tests N-R, compounds were sprayed as a 100 g/ha test suspension (equivalent to a rate of 100 ppm) on the test plants at an application volume of 1000 L/ha. The test suspension was sprayed on grape seedlings. The following day the seedlings were inoculated with a spore suspension of Plasmopara viticola (the causal agent of grape downy mildew) and incubated in a saturated atmosphere at 20° C. for 24 h, then moved to a growth chamber at 20° C. for 7 days, after which time the test units were placed back into a saturated atmosphere at 20° C. for 24 h. Upon removal, disease ratings were made.

SMILES: COCC(C)Nc1nccc(-c2ccnc(Nc3cccc(C#N)c3)c2)n1 (centres unmarked) [Compound 42]
- Test M disease control rating (Pythium aphanidermatum): 0%
- Test B disease control rating [1]: 88%
- Test I disease control rating [2]: 92%
- Test J disease control rating (Rhizoctonia oryzae): 0%
- Test E disease control rating (Fusarium graminearum): 0%
- Test L disease control rating (Plasmopara viticola [3]): 16%
- Test A disease control rating [4]: 0%
- Test D disease control rating (Septoria tritici): 9%
- Test F disease control rating (Botrytis cinerea): 75%
- Test C disease control rating (Septoria nodorum): 94%
- Test K disease control rating (Phytophthora infestans): 0%

SMILES: COCC(C)Nc1nccc(-c2ccnc(Nc3c(F)cccc3F)c2)n1 (centres unmarked) [Compound 49]
- Test M disease control rating (Pythium aphanidermatum): 0%
- Test B disease control rating [1]: 99%
- Test I disease control rating [2]: 67%
- Test J disease control rating (Rhizoctonia oryzae): 0%
- Test E disease control rating (Fusarium graminearum): 81%
- Test L disease control rating (Plasmopara viticola [3]): 0%
- Test A disease control rating [4]: 86%
- Test F disease control rating (Botrytis cinerea): 90%
- Test C disease control rating (Septoria nodorum): 92%
- Test K disease control rating (Phytophthora infestans): 0%

SMILES: COCC(C)Nc1nccc(-c2ccnc(Nc3ccc(F)cc3)c2)n1 (centres unmarked) [Compound 50]
- Test M disease control rating (Pythium aphanidermatum): 0%
- Test B disease control rating [1]: 99%
- Test I disease control rating [2]: 96%
- Test J disease control rating (Rhizoctonia oryzae): 0%
- Test E disease control rating (Fusarium graminearum): 72%
- Test L disease control rating (Plasmopara viticola [3]): 0%
- Test A disease control rating [4]: 0%
- Test F disease control rating (Botrytis cinerea): 94%
- Test C disease control rating (Septoria nodorum): 84%
- Test K disease control rating (Phytophthora infestans): 0%

SMILES: COCC(C)Nc1nccc(-c2ccnc(Nc3cccc(C)c3)c2)n1 (centres unmarked) [Compound 51]
- Test M disease control rating (Pythium aphanidermatum): 0%
- Test B disease control rating [1]: 99%
- Test I disease control rating [2]: 92%
- Test J disease control rating (Rhizoctonia oryzae): 0%
- Test E disease control rating (Fusarium graminearum): 48%
- Test L disease control rating (Plasmopara viticola [3]): 0%
- Test A disease control rating [4]: 88%
- Test F disease control rating (Botrytis cinerea): 99%
- Test C disease control rating (Septoria nodorum): 98%
- Test K disease control rating (Phytophthora infestans): 0%

SMILES: Cc1cc(C)c(Nc2cc(-c3ccnc(NC4CCOCC4)n3)ccn2)c(Cl)c1 [Compound 90]
- Test N disease control rating (Uncinula necator): 98%
- Test R disease control rating (Plasmopara viticola [5]): 98%
- Test B disease control rating [1]: 99%
- Test I disease control rating [2]: 93%
- Test E disease control rating (Fusarium graminearum): 100%
- Test A disease control rating [4]: 98%
- Test D disease control rating (Septoria tritici): 47%
- Test F disease control rating (Botrytis cinerea): 99%
- Test C disease control rating (Septoria nodorum): 100%

SMILES: COCC(C)Nc1cc(-c2ccnc(Nc3cccc(Cl)c3)n2)ncn1 (centres unmarked) [Compound 105, N^2-(3-chlorophenyl)-N^6′-(2-methoxy-1-methylethyl) [4,4′-bipyrimidine]-2,6′-diamine]
- Test M disease control rating (Pythium aphanidermatum): 0%
- pest or weed control at 200 ppm [1]: 97%
- pest or weed control at 200 ppm [2]: 0%
- Test J disease control rating (Rhizoctonia oryzae): 0%
- pest or weed control at 200 ppm (Fusarium graminearum): 73%
- Test L disease control rating (Plasmopara viticola [3]): 0%
- pest or weed control at 200 ppm [4]: 0%
- pest or weed control at 200 ppm (Botrytis cinerea): 78%
- pest or weed control at 200 ppm (Septoria nodorum): 92%
- Test K disease control rating (Phytophthora infestans): 0%

SMILES: COCC(C)Nc1cc(-c2ccnc(Nc3cccc(F)c3)n2)ncn1 (centres unmarked) [Compound 106, N^2-(3-fluorophenyl)-N^6′-(2-methoxy-1-methylethyl) [4,4′-bipyrimidine]-2,6′-diamine]
- Test M disease control rating (Pythium aphanidermatum): 0%
- pest or weed control at 200 ppm [1]: 94%
- pest or weed control at 200 ppm [2]: 37%
- Test J disease control rating (Rhizoctonia oryzae): 0%
- pest or weed control at 200 ppm (Fusarium graminearum): 32%
- Test L disease control rating (Plasmopara viticola [3]): 0%
- pest or weed control at 200 ppm [4]: 24%
- pest or weed control at 200 ppm (Septoria tritici): 17%
- pest or weed control at 200 ppm (Botrytis cinerea): 85%
- pest or weed control at 200 ppm (Septoria nodorum): 99%
- Test K disease control rating (Phytophthora infestans): 0%

SMILES: COCC(C)Nc1cc(-c2ccnc(Nc3cccc([N+](=O)[O-])c3)n2)ncn1 (centres unmarked) [Compound 107, N^6′-(2-methoxy-1-methylethyl)-N^2-(3-nitrophenyl) [4,4′-bipyrimidine]-2,6′-diamine]
- Test M disease control rating (Pythium aphanidermatum): 0%
- pest or weed control at 200 ppm [1]: 94%
- pest or weed control at 200 ppm [2]: 72%
- Test J disease control rating (Rhizoctonia oryzae): 0%
- pest or weed control at 200 ppm (Fusarium graminearum): 89%
- Test L disease control rating (Plasmopara viticola [3]): 0%
- pest or weed control at 200 ppm [4]: 0%
- pest or weed control at 200 ppm (Septoria tritici): 8%
- pest or weed control at 200 ppm (Botrytis cinerea): 28%
- pest or weed control at 200 ppm (Septoria nodorum): 100%
- Test K disease control rating (Phytophthora infestans): 0%

SMILES: COCC(C)Nc1cc(-c2ccnc(Nc3ccccc3)n2)ncn1 (centres unmarked) [Compound 108]
- Test M disease control rating (Pythium aphanidermatum): 0%
- Test B disease control rating [1]: 80%
- Test I disease control rating [2]: 0%
- Test J disease control rating (Rhizoctonia oryzae): 0%
- Test E disease control rating (Fusarium graminearum): 98%
- Test L disease control rating (Plasmopara viticola [3]): 0%
- Test A disease control rating [4]: 0%
- Test F disease control rating (Botrytis cinerea): 38%
- Test C disease control rating (Septoria nodorum): 0%
- Test K disease control rating (Phytophthora infestans): 0%

Reference: patent publication US8026359B2, “Fungicidal heterocyclic amines” (E.I. du Pont de Nemours and Company, priority 2007, dated 2011)
